The source of these data is patent publication US20130096302A1, “PYRROLOPYRAZINES AND PYRAZOLOPYRAZINES USEFUL AS INHIBITORS OF PROTEIN KINASES” (priority 2005, published 2013).

The structures appear in SMILES notation. A value given as a limit tells only on which side of the number the result lay.

The target of the test is T1, full length Aurora-A (AA 1-403) (Homo sapiens, UniProt O14965).
T1 sequence (O14965 1-403): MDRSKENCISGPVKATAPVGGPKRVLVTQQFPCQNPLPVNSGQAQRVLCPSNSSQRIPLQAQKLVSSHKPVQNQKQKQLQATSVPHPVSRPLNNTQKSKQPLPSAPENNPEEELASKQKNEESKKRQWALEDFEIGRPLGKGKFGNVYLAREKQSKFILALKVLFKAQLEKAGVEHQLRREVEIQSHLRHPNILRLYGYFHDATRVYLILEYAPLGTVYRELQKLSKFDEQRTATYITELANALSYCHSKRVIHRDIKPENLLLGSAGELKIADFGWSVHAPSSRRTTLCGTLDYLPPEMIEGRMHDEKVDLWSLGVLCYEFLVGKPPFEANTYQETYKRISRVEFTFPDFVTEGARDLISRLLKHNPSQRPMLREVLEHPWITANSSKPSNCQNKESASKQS
Description: AuroraA Inhibition Assay (coupled enzyme system). The format is biochemical. Conditions: standard coupled enzyme system, 200 μM ATP, 800 μM peptide (LRRASLG), 35 nM Aurora-A, 30° C. How it is done:
Compounds were screened for their ability to inhibit full length Aurora-A (AA 1-403) activity using a standard coupled enzyme system (Fox et al., Protein Sci., 7, pp. 2249 (1998)). Reactions were carried out in a solution containing 100 mM HEPES (pH 7.5), 10 mM MgCl2, 25 mM NaCl, 300 μM NADH, 1 mM DTT and 3% DMSO. Final substrate concentrations in the assay were 200 μM ATP (Sigma Chemicals, St Louis, Mo.) and 800 μM peptide (LRRASLG, American Peptide, Sunnyvale, Calif.). Reactions were carried out at 30° C. and 35 nM Aurora-A. Final concentrations of the components of the coupled enzyme system were 2.5 mM phosphoenolpyruvate, 200 μM NADH, 60 μg/ml pyruvate kinase and 20 μg/ml lactate dehydrogenase.
An assay stock buffer solution was prepared containing all of the reagents listed above with the exception of ATP and the test compound of interest. The assay stock buffer solution (60 μl) was incubated in a 96 well plate with 2 μl of the test compound of interest at final concentrations spanning 0.002 μM to 30 μM at 30° C. for 10 min. […] Rates of reaction were obtained using a Molecular Devices Spectramax plate reader (Sunnyvale, Calif.) over 10 min at 30° C. The Ki values were determined from the rate data as a function of inhibitor concentration using computerized nonlinear regression (Prism 3.0, Graphpad Software, San Diego, Calif.).

As usually defined, the Ki is a dissociation constant, usually derived from enzyme kinetics or from competition with a known ligand. The low end stands for tighter binding, the high end for weaker binding. The compound `Clc1cnc2[nH]cc(-c3cccc(Br)c3)c2n1` [Compound I-1, 7-(3-Bromo-phenyl)-2-chloro-5H-pyrrolo[2,3-b]pyrazine] displayed a Ki of less than 0.2 µM.

For the compound `C[C@H](Nc1nc(-c2c[nH]c3ncc(Cl)nc23)ncc1F)c1ccc(F)cc1` [Compound I-28], the Ki is less than 0.2 µM.
